Test: Photochemical cleavage assays of incorporated nucleotide analogs (365 nm UV light, DT50)
Format: physicochemical
Settings: for DT50 in 1 mM NaN3, 50 mM DTT / DT50 in 1 mM NaN3, No DTT: 365 nm UV, 0.70 W/cm^2; for DT50 value of ds1 isomer compared with the parent dA.I analog: ds1 isomers of the α-isopropyl C^7-HOMedA set; for faster photochemical cleavage rates of ds2 isomers compared with their ds1 counterparts, factor: ds2 vs ds1 isomer of the same analog; for DT50 values: UV photochemical cleavage experiments
Description: As used herein, the term “DT50” refers to the amount of time required to cleavage 50% of the base analog incorporated in the primer-template complex.
To compare the rates of photochemical cleavage between the nucleotide analogs described here, a protocol was developed to deliver a daily light intensity output of 0.70±0.01 W/cm^2 to samples, see below.
The power supply was turned on for about 30 min prior to that of the lamp and recirculation bath as described by the manufacturer. The IR liquid filter was cooled to 9° C. Light intensity was determined using a model PM100 power meter (Thorlabs), a 1000 μm pinhole (Edmund Optics), a modified 0.5 mL Eppendorf tube cut in half, and a 3-axis manual translation stage (Newport), see FIG. 5. The half cut Eppendorf tube was positioned in front of the pinhole and power meter detector head to account for the geometric shape distortion of the light as it passes through a reaction solution. The translation stage was then used to align the tube/pinhole/detector device with the highest intensity from the arc beam.
To stabilize its output, the lamp was left on for one hour prior to intensity measurements. Thereafter, the measured power was adjusted by increasing the current from the power supply. In order to achieve intensity (I) of 0.70 W/cm^2, the measured power (P) was adjusted to ˜5.5 mW, according to the equation:
[formula] where r is the radius of pinhole.
The beam was then focused by placing an 0.5 mL Eppendorf tube into the sample holder, the tube of which was modified with an internal alignment card to provide reference lines for volume heights of 10 μL and 20 μL, see FIG. 5. The reference lines enabled the beam to be centered for a given reaction volume. Beam alignment was further verified by observing the mercury arc image of the lamp produced by the rear reflector. A second alignment card was placed into the rotating sample holder to view the image, which when properly aligned using the reflector would produce an inverted arc image on the arc gap itself. This step ensured that arc hotspots were not superimposed, which could cause overheating while maintaining a power output of ˜5.5 mW. The speed of the rotating sample holder was adjusted within a range of 1,200-1,350 rpm using a Nova-Strobe DA Plus stroboscope (Monarch Instrument) by adjusting the motor's torque with an adjustment screw.
Photochemical cleavage assays: Nucleotide analogs were incorporated using 10 μL reactions, as described for the PEP assays, at a final concentration of 100 nM. […] OligoTemplate-2, oligoTemplate-5, and oligoTemplate-4 each hybridized with BODIPY-FL labeled primer-1 were used for C^7-HOMedA, C^7-HOMedG, and HOMedU analogs, respectively. OligoTemplate-8 hybridized with BODIPY-FL labeled primer-3 was used to assay HOMedC analogs. Incorporated reactions were quenched with either 1 mM sodium azide solution; 1 mM sodium azide, 50 mM DTT solution; or reagents C-G (see key in FIG. 4), exposed to 365 nm ultraviolet (UV) light for various time points using our UV deprotector, and then placed on ice.

[1] = Table 1, C^7-HOMedA analogs, average ± 1SD, triplicate
[2] = Table 2, C^7-HOMedG analogs, average ± 1SD, triplicate
[3] = α-tert-butyl C^7-HOMedG analogs, ds1 isomers
[4] = Table 3, reversible terminators
[5] = Table 3, reversible terminators, [a] transient product considered as cleaved product

SMILES | DT50 in 1 mM NaN3, 50 mM DTT [1] [s] | DT50 in 1 mM NaN3, No DTT [1] [s] | faster photochemical cleavage rates of ds2 isomers compared with their ds1 counterparts, factor [×] | DT50 in 1 mM NaN3, 50 mM DTT [2] [s] | DT50 in 1 mM NaN3, No DTT [2] [s] | also measured
CC(C)C(OCc1cn([C@H]2C[C@H](O)[C@@H](COP(=O)(O)OP(=O)(O)OP(=O)(O)O)O2)c2ncnc(N)c12)c1ccccc1[N+](=O)[O-] (single isomer, unassigned) [dA.III.a ds1, 7-[1-(2-nitrophenyl)-2-methyl-propyloxy]methyl-7-deaza-2′-deoxyadenosine-5′-triphosphate] | 4.4 ± 0.2 | 4.5 ± 0.2 |  |  |  | DT50 value of ds1 isomer compared with the parent dA.I analog: higher
CC(C)C(OCc1cn([C@H]2C[C@H](O)[C@@H](COP(=O)(O)OP(=O)(O)OP(=O)(O)O)O2)c2ncnc(N)c12)c1ccccc1[N+](=O)[O-] (single isomer, unassigned) [dA.III.a ds2, 7-[1-(2-nitrophenyl)-2-methyl-propyloxy]methyl-7-deaza-2′-deoxyadenosine-5′-triphosphate] | 2.1 ± 0.1 | 2.2 ± 0.1 | 2.0 |  |  | 
COc1ccc(C(OCc2cn([C@H]3C[C@H](O)[C@@H](COP(=O)(O)OP(=O)(O)OP(=O)(O)O)O3)c3ncnc(N)c23)C(C)C)c([N+](=O)[O-])c1 (single isomer, unassigned) [dA.III.b ds1, 7-[1-(4-methoxy-2-nitrophenyl)-2-methyl-propyloxy]methyl-7-deaza-2′-deoxyadenosine-5′-triphosphate] | 6.1 ± 0.4 | 7.0 ± 0.3 |  |  |  | DT50 value of ds1 isomer compared with the parent dA.I analog: higher
COc1ccc(C(OCc2cn([C@H]3C[C@H](O)[C@@H](COP(=O)(O)OP(=O)(O)OP(=O)(O)O)O3)c3ncnc(N)c23)C(C)C)c([N+](=O)[O-])c1 (single isomer, unassigned) [dA.III.b ds2, 7-[1-(4-methoxy-2-nitrophenyl)-2-methyl-propyloxy]methyl-7-deaza-2′-deoxyadenosine-5′-triphosphate] | 1.0 ± 0.1 | 1.1 ± 0.1 | 6.4 |  |  | 
CC(C)C(OCc1cn([C@H]2C[C@H](O)[C@@H](COP(=O)(O)OP(=O)(O)OP(=O)(O)O)O2)c2ncnc(N)c12)c1c([N+](=O)[O-])cccc1[N+](=O)[O-] (single isomer, unassigned) [dA.III.c ds1, 7-[1-(2,6-dinitrophenyl)-2-methyl-propyloxy]methyl-7-deaza-2′-deoxyadenosine-5′-triphosphate] | 3.0 ± 0.2 | 3.4 ± 0.2 |  |  |  | DT50 value of ds1 isomer compared with the parent dA.I analog: similar
CC(C)C(OCc1cn([C@H]2C[C@H](O)[C@@H](COP(=O)(O)OP(=O)(O)OP(=O)(O)O)O2)c2ncnc(N)c12)c1c([N+](=O)[O-])cccc1[N+](=O)[O-] (single isomer, unassigned) [dA.III.c ds2, 7-[1-(2,6-dinitrophenyl)-2-methyl-propyloxy]methyl-7-deaza-2′-deoxyadenosine-5′-triphosphate] | 2.5 ± 0.1 | 2.8 ± 0.2 | 1.2 |  |  | 
CC(C)(C)C(OCc1cn([C@H]2C[C@H](O)[C@@H](COP(=O)(O)OP(=O)(O)OP(=O)(O)O)O2)c2nc(N)[nH]c(=O)c12)c1ccccc1[N+](=O)[O-] (single isomer, unassigned) [dG.V.a ds2, 7-[1-(2-nitrophenyl)-2,2-dimethyl-propyloxy]methyl-7-deaza-2′-deoxyguanosine-5′-triphosphate] |  |  | 3.1 | 3.5 ± 0.3 | 3.6 ± 0.3 | 
COc1ccc(C(OCc2cn([C@H]3C[C@H](O)[C@@H](COP(=O)(O)OP(=O)(O)OP(=O)(O)O)O3)c3nc(N)[nH]c(=O)c23)C(C)(C)C)c([N+](=O)[O-])c1 (single isomer, unassigned) [dG.V.b ds1, 7-[1-(4-methoxy-2-nitrophenyl)-2,2-dimethyl-propyloxy]methyl-7-deaza-2′-deoxyguanosine-5′-triphosphate] |  |  |  | 4.6 ± 0.3 | 4.9 ± 0.3 | 
COc1ccc(C(OCc2cn([C@H]3C[C@H](O)[C@@H](COP(=O)(O)OP(=O)(O)OP(=O)(O)O)O3)c3nc(N)[nH]c(=O)c23)C(C)(C)C)c([N+](=O)[O-])c1 (single isomer, unassigned) [dG.V.b ds2, 7-[1-(4-methoxy-2-nitrophenyl)-2,2-dimethyl-propyloxy]methyl-7-deaza-2′-deoxyguanosine-5′-triphosphate] |  |  | 4.5 | 1.3 ± 0.2 | 1.1 ± 0.1 | 
COc1ccc([N+](=O)[O-])c(C(OCc2cn([C@H]3C[C@H](O)[C@@H](COP(=O)(O)OP(=O)(O)OP(=O)(O)O)O3)c3nc(N)[nH]c(=O)c23)C(C)(C)C)c1 (single isomer, unassigned) [dG.V.c ds2, 7-[1-(5-methoxy-2-nitrophenyl)-2,2-dimethyl-propyloxy]methyl-7-deaza-2′-deoxyguanosine-5′-triphosphate] |  |  | 4.4 | 0.8 ± 0.1 | 0.8 ± 0.1 | DT50 values: 0.8 s; rate increases, dG.V.c compared with dG.V.a (same isomer (ds1 or ds2) of dG.V.c vs dG.V.a): 4.4 ×; faster photochemical cleavage rates compared with the corresponding 4-OMe isomers (α-tert-butyl C^7-HOMedG analogs, 5-OMe vs 4-OMe): 1.4 × fold
COc1cc(C(OCc2cn([C@H]3C[C@H](O)[C@@H](COP(=O)(O)OP(=O)(O)OP(=O)(O)O)O3)c3nc(N)[nH]c(=O)c23)C(C)(C)C)c([N+](=O)[O-])cc1OC (single isomer, unassigned) [dG.V.d ds1, 7-[1-(4,5-dimethoxy-2-nitrophenyl)-2,2-dimethyl-propyloxy]methyl-7-deaza-2′-deoxyguanosine-5′-triphosphate] |  |  |  | 2.3 ± 0.2 | 2.4 ± 0.1 | faster cleavage rates compared with mono-substituted 4-OMe isomer [3]: 2.0 ×; faster cleavage rates compared with mono-substituted 5-OMe isomer [3]: 1.5 ×
COc1cc(C(OCc2cn([C@H]3C[C@H](O)[C@@H](COP(=O)(O)OP(=O)(O)OP(=O)(O)O)O3)c3nc(N)[nH]c(=O)c23)C(C)(C)C)c([N+](=O)[O-])cc1OC (single isomer, unassigned) [dG.V.d ds2, 7-[1-(4,5-dimethoxy-2-nitrophenyl)-2,2-dimethyl-propyloxy]methyl-7-deaza-2′-deoxyguanosine-5′-triphosphate] |  |  | 3.0 | 0.8 ± 0.1 | 0.8 ± 0.1 | DT50 values: 0.8 s
Nc1ncnc2c1c(COCc1ccccc1[N+](=O)[O-])cn2[C@H]1C[C@H](O)[C@@H](COP(=O)(O)OP(=O)(O)OP(=O)(O)O)O1 [dA.I, 7-(2-nitro-benzyloxy)methyl-7-deaza-2′-deoxyadenosine-5′-triphosphate] | 3.5 ± 0.1 | 3.6 ± 0.1 |  |  |  | DT50 in 1 mM NaN3, 50 mM DTT [4]: 3.5 ± 0.1 s; DT50 in 1 mM NaN3, No DTT [5]: 3.6 ± 0.1 s
CC(C)(C)[C@H](OCc1cn([C@H]2C[C@H](O)[C@@H](COP(=O)(O)OP(=O)(O)OP(=O)(O)O)O2)c2ncnc(N)c12)c1ccccc1[N+](=O)[O-] [dA.V, 7-[(S)-1-(2-nitrophenyl)-2,2-dimethyl-propyloxy]methyl-7-deaza-2′-deoxyadenosine-5′-triphosphate] |  |  |  |  |  | DT50 in 1 mM NaN3, 50 mM DTT [4]: 2.0 ± 0.2 s; DT50 in 1 mM NaN3, No DTT [5]: 2.1 ± 0.1 s
